Reference: patent US9364454B2, “Anti-inflammatory actions of neuroprotectin D1/protectin D1 and its natural stereoisomers” (The Brigham and Women's Hospital, Inc., priority 2005, dated 2016)
Entries after “also recorded” stand apart in the source; their conditions may differ. Read-outs that look alike come from different tables or passages of the source.

Legend:
FVB male mice [1] = conditions: cited from earlier work
FVB male mice [2] = test: Acute inflammatory exudates: zymosan A murine peritonitis (leukocyte infiltration); assay type: in vivo, mouse
Protocol: Peritonitis was carried out using 6-8 week-old FVB male mice (Charles River Laboratories) fed laboratory Rodent Diet 5001 (Purina Mills) that were anesthetized with isoflurane, and compounds to be tested were administered intraperitoneally. […] Each compound tested or vehicle alone was suspended in 1 μl ethanol and mixed in sterile saline (120 μl). After intraperitoneal injections (either 2 or 4 hours of acute inflammation), the mice were sacrificed in accordance with the Harvard Medical Area Standing Committee on Animals protocol no. 02570, and peritoneal lavages were collected rapidly and placed in an ice bath (4° C.) for enumeration, differential counts, and further analysis.

male FvB mice [3] = test: Airway responsiveness to aerosolized methacholine in OVA-sensitized/challenged mice; assay type: in vivo, mouse
Protocol: (§1) Five to seven week old male FvB mice (Charles River Laboratories) were housed in isolation cages under viral antibody-free conditions. Mice were fed a standard diet (Laboratory Rodent Diet 5001, PMI Nutrition International) that contained no less than 4.5% total fat with 0.26% omega-3 fatty acids and <0.01% C20:4. After Harvard Medical Area IRB approval (Protocol #02570), mice were sensitized with intraperitoneal injections of ovalbumin (OVA) (Grade III; Sigma Chemical Co.) (10 μg) plus 1 mg aluminum hydroxide (ALUM) (J.T. Baker Chemical Co.) as adjuvant in 0.2 ml PBS on days 0 and 7. On days 14, 15, 16 and 17, the mice received PD1 (2, 20 or 200 ng) (a product of biogenic synthesis (52)) or PBS with 1.6 mM CaCl2 and 1.6 mM MgCl2 (0.1 ml) by intravenous injection 30 min prior to an aerosol challenge containing either PBS or 6% OVA for 25 min/day. Matching experiments were performed with 20 ng PD1 prepared by total organic synthesis (62).
(§2) On day 18, 24 h after the last aerosol challenge, either airway responsiveness to aerosolized methacholine (0, 20, 50 and 75 mg, 10 sec) was measured, bilateral bronchoalveolar lavage (BAL) (2 aliquots of 1 ml PBS plus 0.6 mM EDTA) was performed or tissues were harvested for histological analysis. Lung resistance was measured using a Flexivent ventilator (SciReq). Resistance was measured as a function of time for each animal, and peak and average values for each dose of methacholine were recorded. No BAL or histological analysis was performed on those animals undergoing airway hyper-responsiveness or lipid extraction studies.

male FvB mice [4] = assay type: in vivo
Protocol: as §1
as §2, with “No BAL or histological analysis was performed on those animals undergoing airway hyper-responsiveness or lipid extraction studies.” left out
Murine lungs were fixed in 10% buffered formalin and paraffin embedded for hematoxylin and eosin and periodic acid Schiff staining (Sigma Chemical Co.). […] Three fields per slide were examined at 200× magnification for vessels, large airways and alveoli with EOS counted at 400× magnification in randomly assigned fields. […] Measurement of inflammatory mediators was determined in cell-free BAL fluid (BALF) (2000 g, 10 min) by sensitive and specific ELISAs, in tandem, for interleukin-5 (IL-5), IL-12, IL-13, PGD2 (R&D Systems), cysteinyl LTs, (Cayman Chemical Co.), and LXA4 (Neogen). […]

male FvB mice [5] = test: PD1 given after aeroallergen challenge (days 18-20), BAL on day 21; assay type: in vivo, mouse
Protocol: In select experiments, animals were sensitized and aeroallergen challenged for four days prior to receiving PD1 (20 ng) or PBS by intravenous injection (0.1 ml) on days 18, 19 and 20. On day 21, bilateral BAL was performed.
Murine lungs were fixed in 10% buffered formalin and paraffin embedded for hematoxylin and eosin and periodic acid Schiff staining (Sigma Chemical Co.). Tissue morphometry was performed by a member (K. Haley) of the Lung Histopathology Core Laboratory at Brigham and Women's Hospital who was blinded to the experimental conditions prior to histological analyses. Three fields per slide were examined at 200× magnification for vessels, large airways and alveoli with EOS counted at 400× magnification in randomly assigned fields. Vessels were identified by perivascular smooth muscle, and large airways were identified by at least ½ their diameter either cuboidal or columnar epithelia. Measurement of inflammatory mediators was determined in cell-free BAL fluid (BALF) (2000 g, 10 min) by sensitive and specific ELISAs, in tandem, for interleukin-5 (IL-5), IL-12, IL-13, PGD2 (R&D Systems), cysteinyl LTs, (Cayman Chemical Co.), and LXA4 (Neogen). Cells in BALF were resuspended in PBS, enumerated by hemocytometer, and concentrated onto microscope slides by cytocentrifuge (STATspin) (265 g). […]

[6] = system: human PMN transmigration across endothelial cells; test: Human PMN transmigration across HMEC monolayers, LTB4-induced; assay type: cell-based
Protocol: PMN were freshly isolated from whole blood obtained by venipuncture from healthy human donors (who denied taking medication for 2 weeks prior to donation; BWH protocol no. 88-02642) and anti-coagulated with acid citrate dextrose as in (40, 41). Briefly, plasma and mononuclear cells were removed by aspiration from the buffy coat after centrifugation (400 g; 20 min) at room temperature. Histopaque (density 1.077) was from Sigma-Aldrich (St. Louis, Mo.). RBCs were sedimented using 2% gelatin, and residual RBCs were removed by lysis in ice-cold NH4Cl buffer. The cell suspensions were >90% PMN as determined by light microscopic evaluation. PMN were suspended at 5×10^7 cells/ml in HBSS with 10 mM Hepes, pH 7.4, and without Ca^2+ or Mg^2+ (Sigma-Aldrich, St. Louis, Mo.). PMN were used within 2 hours of their isolation.
Human Microvascular Endothelial Cells (HMEC; a gift from Francisco Candal of the Centers for Disease Control, Atlanta, Ga.) were obtained as primary cultures. For preparation of experimental HMEC monolayers, confluent endothelial cells were grown on 0.33 cm^2 ring-supported polycarbonate filters (5 μm pore size; Costar Corp., Cambridge, Mass.) in the apical-to-basolateral direction. Cells were grown for ˜1 week prior to transmigration experiments.
Transmigration was conducted essentially as in ref. (41). PMN were incubated with either vehicle-containing buffer or compound for 15 minutes at 37° C. A chemotactic gradient was established by placing HMEC inserts that had been washed in HBSS with Ca^2+ and Mg^2+ (denoted +/+) in 10^−8M LTB4 in the lower chambers. Neutrophils (10^6 cells) were added to 50 μl HBSS +/+ in the upper chambers and cells were incubated at 37° C. for 90 min. Transmigrated PMN were quantified by assessing the PMN azurophilic marker myeloperoxidase and a calibration curve. PMN were lysed by the addition of Triton X-100 to a final concentration of 0.5%. The samples were acidified with citrate buffer (final concentration 100 mM, pH 4.2). An aliquot of each sample was added to an equal volume of ABTS solution (1 mM ABTS [2′-azino-bis(3-ethylbenzo-thiazoline-6-sulfonic acid)], 0.03% H2O2, 100 mM sodium citrate buffer, pH 4.2) in a 96-well plate. The resulting color was monitored using a plate reader at 405 nm and a calibration curve for cell number.

CC/C=C\C[C@H](O)\C=C/C=C/C=C/[C@H](O)C/C=C\C/C=C\CCC(=O)O [PD1, 10R,17S-dihydroxy-docosa-4Z,7Z,11E,13E,15Z,19Z-hexaenoic acid]
inhibition of PMN infiltration (FVB male mice [1]; 100 ng/mouse, i.v., earlier experiments (ref 1)): ~40% | apparent maximal response, reduction of PMN infiltration (FVB male mice [1]; doses as low as 100 ng/mouse (ref 1)): ~50% | potency versus indomethacin in reducing PMN infiltration (FVB male mice [1]; i.v., earlier experiments (ref 1)): more potent than indomethacin | rank order of potency (FVB male mice [2]; 0.1 ng dose): Compound VI>>PD1>10S,17S-DT (the double dioxygenation product)>the Δ15-trans-PD1>>Compound V | activity on PMN infiltration (in words) (FVB male mice [2]; 1 ng/mouse dose): striking inhibition of PMN infiltration | PMN infiltration when given after initiation of inflammation (in words) (FVB male mice [2]; 1 ng/mouse i.p. 2 h after zymosan A, lavage at 4 h): diminished infiltration of PMN; also recorded: reduces PMN infiltration; also recorded: reduced PMN infiltration after initiation (2 h) of inflammation | inhibition of PMN infiltration (FVB male mice [2]; 1 ng/mouse, peritonitis): ~40% | inhibition of PMN infiltration (FVB male mice [2]; 10 ng and 100 ng doses (maintained)): ~40% | kind of joint anti-inflammatory action of PD1 and RvE1 (FVB male mice [2]; 10 ng/mouse i.p. of either or both, 2 h): additive rather than synergistic | PMN infiltration, PD1 and RvE1 administered together (in words) (FVB male mice [2]; 10 ng/mouse i.p., exudates at 2 h): reduced the infiltration of PMN | PMN infiltration (in words) (FVB male mice [2]; 10 ng/mouse, 4 h after injection (FIG. 9)): reduced PMN infiltration; also recorded: Statistically different from *zymosan A-injected mice | rank order of potency (FVB male mice [2]; 1-10 ng dose): PD1≈PD1 methyl ester>>Δ15-trans PD1>10S,17S-diHDHA (isomer I) | anti-inflammatory potency in vivo, PMN infiltration (in words) (FVB male mice [2]; dose range tested (FIG. 6), lavage at 2 h): dramatically reduced the infiltration of PMN into the peritoneum; also recorded: more potent than the dioxygenation product; also recorded: potent regulator of PMN infiltration in vivo | blocking of further PMN infiltration (FVB male mice [2]; given 2 h after zymosan A challenge): > 90% | recruitment of monocytes and lymphocytes to exudates (in words) (FVB male mice [2]; peritonitis, differential counts): increased the non-phlogistic recruitment of monocytes and lymphocytes; also recorded: regulated both monocyte and lymphocyte traffic | shape of dose response, protection on airway hyper-responsiveness (male FvB mice [3]; 2, 20, 200 ng): bell-shaped dose response with maximal protection | log ED200 for the mean airway resistance (male FvB mice [3]; 2, 20 and 200 ng, compared with vehicle): significantly increased | airway hyper-responsiveness: peak and average lung resistance in response to methacholine (male FvB mice [3]; PD1 0-200 ng i.v. prior to OVA challenge): decreased both peak and average lung resistance; also recorded: dampened; also recorded: reduces airway hyper-responsiveness | lung elastance or compliance (male FvB mice [3]; following allergen challenge (data not shown)): no significant changes | airway responses of control animals that received PBS rather than allergen (male FvB mice [3]; mouse, in vivo): no significant impact | EOS and Lymphs in the peribronchial regions and airspaces (histology) (male FvB mice [4]; 2, 20 or 200 ng i.v., versus vehicle): substantially less EOS and Lymphs | EOS tissue infiltration around vessels and in large and peripheral airways (morphometry) (male FvB mice [4]; PD1 i.v. prior to challenge): significant decreases | EOS trafficking (male FvB mice [4]; as little as 2 ng of PD1): reduced | numbers of total leukocytes, Eos and Lymphs in BALFs (male FvB mice [5]; 20 ng iv once a day for three days after challenge, day 21): significant decrements | resolution of allergic airway inflammation (in words) (male FvB mice [5]; PD1 treatment after aeroallergen challenge): has the capacity to accelerate resolution of allergic airway inflammation; also recorded: promoted the resolution of airway inflammation; also recorded: promotes resolution of allergen-driven leukocytes; also recorded: markedly accelerated the resolution of airway inflammation | inhibition of PMN transmigration ([6]; 1.0 nM, in response to leukotriene B4): 30% | attenuation of human neutrophil transmigration ([6]; 10 nM, LTB4 10^-8 M, 90 min): ~50% | reduction of PMN transmigration ([6]; 10-100 nM, in vitro): 35-45% | highest degree of inhibition of neutrophil transmigration observed ([6]; HMEC monolayers, neutrophils from >5 separate donors, each experiment): ≤ 50% | effect on LTB4-induced PMN transmigration (in words) ([6]; compound 15 min, LTB4 10^-8 M 90 min): reduced PMN transmigration; also recorded: inhibited LTB4-induced PMN migration; also recorded: stereoselectively reduces PMN transmigration in vitro
